Source: patent publication US8741886B2, “Baclofen and acamprosate based therapy of neurological disorders” (Pharnext, priority 2011, dated 2014)

Legend:
[1] = system: mice injected i.c.v. with Aβ25-35 peptide; assay: Passive avoidance test after i.c.v. Aβ25-35; format: in vivo; conditions: Acamprosate 0.2 mg/kg; Baclofen 3 mg/kg
Protocol: Male Swiss mice are used throughout the study. Animals are housed in plastic cages, with free access to laboratory chow and water, except during behavioural experiments, and kept in a regulated environment, under a 12 h light/dark cycle (light on at 8:00 a.m.). Experiments are carried out in a soundproof and air-regulated experimental room, to which mice have been habituated at least 30 min before each experiment.
Drug(s) is/are daily administered by gavage (per os). The β25-35 peptide and scrambled β 25-35 peptide (control) have been dissolved in sterile bidistilled water, and stored at −20° C. until use. The β-amyloid peptides are then administered intracerebroventricularly (i.c.v.). […]
On day 7 and 8, the contextual long-term memory of the animals is assessed using the […] passive avoidance procedure.
The apparatus is a two-compartment (15×20×15 cm high) box with one illuminated with white polyvinylchloride walls and the other darkened with black polyvinylchloride walls and a grid floor. […] The step-through latency, that is, the latency spent to enter the darkened compartment, and the number of vocalizations is recorded. […] After 5 s the doors is raised, the step-through latency and the escape latency, i.e. the time spent to return into the white compartment, are recorded up to 300 s.

[2] = system: mice injected i.c.v. with Aβ25-35 peptide; assay: Spontaneous alternation, Y-maze test, after i.c.v. Aβ25-35; format: in vivo; conditions: drugs alone: Donepezil 0.25 mg/kg/day, Acamprosate 32 μg/kg/day, Baclofen 480 μg/kg/day
Description: The Y-maze is made of grey polyvinylchloride. Each arm is 40 cm long, 13 cm high, 3 cm wide at the bottom, 10 cm wide at the top, and converging at an equal angle. […] An alternation is defined as entries into all three arms on consecutive occasions.

neuronal cortical cells = assay: Glutamate toxicity assay on primary cortical neurons (neurite network, neurofilament immunostaining); format: cell-based, rat; conditions: Baclofen 400 nM, Acamprosate 1.6 nM; glutamate 40 μM, 20 min
Protocol: The efficacy of drug combinations of the invention is assessed on primary cortical neuron cells. The protocol which is used in these assays is the same as described in section A.I.2 above.
After 12 days of neuron culture, drugs of the candidate combinations are solved in culture medium (+0.1% DMSO). Candidate combinations are then pre-incubated with neurons for 1 hour before the Glutamate injury. One hour after incubation with, Glutamate is added for 20 min, to a final concentration of 40 μM, in presence of candidate combinations, in order to avoid further drug dilutions. At the end of the incubation, medium is changed with medium with candidate combination but without glutamate. The culture is fixed 24 hours after glutamate injury. MK801 (Dizocilpinehydrogen maleate, 77086-22-7-20 μM) is used as a positive control.
After permeabilization with saponin (Sigma), cells are blocked for 2 h with PBS containing 10% goat serum, then the cells are incubated with mouse monoclonal primary antibody against Neurofilament antibody (NF, Sigma).
Nuclei of cells are labeled by a fluorescent marker (Hoechst solution, SIGMA), and neurite network quantified. Six wells per condition are used to assess neuronal survival in 3 different cultures.

## CC(=O)NCCCS(=O)(=O)O [Acamprosate]
[1]
  effect on step-through latency, drugs alone compared with the combination (in words): lower effect
[2]
  effect on percentage of alternation (Y-maze), low doses (in words): no significant effect
Neuronal cortical cells
  effect on glutamate intoxication (in words): no significant effect

## NCC(CC(=O)O)c1ccc(Cl)cc1 (stereo not drawn) [Baclofen]
[1]
  effect on step-through latency, drugs alone compared with the combination (in words): lower effect
[2]
  effect on percentage of alternation (Y-maze), low doses (in words): no significant effect
Neuronal cortical cells
  effect on glutamate intoxication (in words): no significant effect
